Source: patent publication US12121503B2, “Antiviral treatments” (priority 2006, dated 2024)
Several values for one entry are separate records, joined by “and”; a condition that tells them apart may be missing. Identical values can stand only once. Marks after values point to notes of the source that are not given here.

Key:
[1] = Phase I clinical study in healthy human volunteers, plasma concentration after intravenous and intramuscular administration
[2] = Toxicity controls: uninfected mice treated in parallel; settings: for Tox Controls Surv/Total: 21 days
[3] = system: influenza infection; settings: oral administration over a period of days; cited from earlier work
[4] = system: influenza virus; settings: cited from earlier work
[5] = Plasma levels after i.v. administration in mice
[6] = system: influenza virus; settings: cited from earlier work; remark: listed apart in the source
[7] = system: Influenza A/Duck/MN/152518 (H5N1); type: in vivo, BALB/c mice
[8] = intramuscular, healthy human volunteers

With `CCC(CC)C(NC(C)=O)[C@@H]1[C@H](O)[C@@H](C(=O)O)C[C@H]1NC(=N)N` (stereo partly drawn) [Peramivir, (1S,2S,3R,4R)-3-(1-Acetamido-2-ethylbutyl)-4-guanidino-2-hydroxycyclopentane-carboxylic acid] the half-life ([1]; human, plasma, iv) was > 12 h, the “Kinetics of plasma concentrations” value [1, 8] was “linear kinetics” and the Plasma half life [1, 8] was “unusually extended”. For the same compound, the “Kinetics of plasma concentrations” value ([1]; intravenous, healthy human volunteers) was “linear kinetics”, the “Tox Controls Surv/Total” value ([2]; 3 mg/kg i.v.) was 3/3 and the “Tox Controls Surv/Total” value ([2]; 10 mg/kg i.v.) was 3/3. The “Tox Controls Surv/Total” value ([2]; 20 mg/kg i.v.) was 3/3, the “Survival and weight of toxicity controls” value ([2]; i.v., run in parallel) was “all survived and gained weight” and the “Tolerability in toxicity controls” value ([2]; i.v., run in parallel) was “well tolerated”. For the same compound, the “Therapeutic effect on influenza infection in humans” value [3] was “suboptimal therapeutic effect”, the “Activity against the influenza virus in vitro” value [4] was “marked activity” and the “Time at relatively high levels in the plasma” value [5] was “at least 6 hours”. For the same compound, the “Activity against the influenza virus in experimentally infected mice” value [6] was “marked activity”, the “Infected, Treated Mice Surv/Total” value ([7]; 21 days) was 10/10** and 5/10 and the “Effect on lung parameters” value ([7]; mouse, in vivo) was “moderately inhibitory”. For the same compound, the “Infected animals surviving the infection” value ([7]; mouse, in vivo) was 100% and the “Protection of mice (prevention of deaths, lessening of lung consolidation, inhibition of lung virus titers)” value ([7]; mouse, in vivo) was “significantly protective”.
